# Laboratory results as given in US5698411A, “Method for determining activity of enzymes in metabolically active whole cells” (priority 1995, dated 1997).
# Key:
# lymphocytes [1] = test: enzyme activity with fluorogenic substrate, normal lymphocytes (Table 3A); assay type: cell-based, human
# granulocytes [2] = test: aberrant enzyme activities in febrile children, granulocytes (Table 7); assay type: cell-based, human
# monocytes [3] = test: enzyme activity with fluorogenic substrate, normal monocytes (Table 3A); assay type: cell-based, human
# lymphocytes [4] = test: aberrant enzyme activities in febrile children, lymphocytes (Table 7); assay type: cell-based, human
# erythrocytes = test: enzyme activity with fluorogenic substrate, normal erythrocytes (Table 3B); assay type: cell-based, human
# monocytes [5] = test: aberrant enzyme activities in febrile children, monocytes (Table 7); assay type: cell-based, human
# [6] = tested on: substituted rhodamine 110 substrates; test: modulator effect on substituted rhodamine 110 substrates; assay type: biochemical
# From the text: Modulators are components used to […] the sensitivity of the enzyme for the leaving group. The modulators speed up or slow down the activity of an enzyme by changing the active site. […] Preferred modulators for particular enzymes are included in Table 1.
# granulocytes [7] = test: enzyme activity with fluorogenic substrate, normal granulocytes (Table 3A); assay type: cell-based, human
# granulocytes [8] = test: peptidase activity in leukemia and non-leukemia patients, granulocytes (Table 6C); assay type: cell-based, human; set-up: unit not given here
# lymphocytes [9] = test: peptidase activity in leukemia and non-leukemia patients, lymphocytes (Table 6C); assay type: cell-based, human; set-up: unit not given here
# [10] = tested on: metabolically active whole cell; test: substrate panel in normals and HIV + patients, TB infection (Table 4); assay type: cell-based, human; set-up: unit not given here
# Experimental: A panel of assay compounds are assembled consisting of Ala-aminopeptidase and Lys-aminopeptidase, Dipeptidyl peptidase IV (Ala-Ala)2 rhodamine 110 and Cathepsin D to indicate possible TB infection in AIDS related cases.
# A panel Of enzymatic substrates is performed consisting of Ala-aminopeptidase and Lys-aminopeptidase, Dipeptidyl peptidase IV (Ala-Ala)2 rhodamine 110 and Cathepsin D to indicate possible TB infection in AIDS related cases.
molecule,measurement,setting,value
"CC(=O)Oc1ccc2c(c1)Oc1cc(OC(C)=O)ccc1C21OC(=O)c2ccccc21 [FDA, fluorescein diacetate, reference compound]",NORMAL LEUKOCYTE ENZYME ACTIVITY LYMPHS Mean,lymphocytes [1],13.38
same,"aberrant enzyme activity, GRANS",granulocytes [2]; P88 Enteritis,.smallcircle.
same,"aberrant enzyme activity, GRANS",granulocytes [2]; P99 Viral Syndrome,.smallcircle.
same,"aberrant enzyme activity, GRANS",granulocytes [2]; P102 UTI,.smallcircle.
same,NORMAL LEUKOCYTE ENZYME ACTIVITY MONOS Mean,monocytes [3],66.25
same,"aberrant enzyme activity, LYMPHS",lymphocytes [4]; P88 Enteritis,.smallcircle.
same,"aberrant enzyme activity, LYMPHS",lymphocytes [4]; P97 Pyelonephritis,.smallcircle.
same,"aberrant enzyme activity, LYMPHS",lymphocytes [4]; P99 Viral Syndrome,.smallcircle.
same,"aberrant enzyme activity, LYMPHS",lymphocytes [4]; P102 UTI,.smallcircle.
same,NORMAL E[…] ACTIVITY MEAN,erythrocytes,0.126
same,"aberrant enzyme activity, MONOS",monocytes [5]; P88 Enteritis,.smallcircle.
same,"aberrant enzyme activity, MONOS",monocytes [5]; P99 Viral Syndrome,.smallcircle.
same,"aberrant enzyme activity, MONOS",monocytes [5]; P102 UTI,.smallcircle.
"O[C@H](CS)[C@@H](O)CS [dithioerythritol (DTE), dithioerythritol]",sensitivity of the leaving group for the enzyme,"[6]; 1 mM, Ala-Gly and Leu-Gly substrates",does not change the sensitivity
same,sensitivity of the substituted rhodamine 110 substrates,"[6]; 1 mM, Pro, Gly, Gln-Ser, Val-Lys-Val-Lys, Ala-Ala, Ala-Ala-Ala-Ala substrates",decreases the sensitivity
(Gly)2 Rho 110,NORMAL LEUKOCYTE ENZYME ACTIVITY GRANS Mean,granulocytes [7],29.48
same,NORMAL LEUKOCYTE ENZYME ACTIVITY LYMPHS Mean,lymphocytes [1],18.18
same,"aberrant enzyme activity, GRANS",granulocytes [2]; P88 Enteritis,.smallcircle.
same,"aberrant enzyme activity, GRANS",granulocytes [2]; P89 Viral Stomatitis,.smallcircle.
same,"aberrant enzyme activity, GRANS",granulocytes [2]; P92 Adenitis,.smallcircle.
same,"aberrant enzyme activity, GRANS",granulocytes [2]; P97 Pyelonephritis,.smallcircle.
same,"aberrant enzyme activity, GRANS",granulocytes [2]; P102 UTI,.smallcircle.
same,"aberrant enzyme activity, GRANS",granulocytes [2]; P103 Viral Syndrome,.smallcircle.
same,NORMAL LEUKOCYTE ENZYME ACTIVITY MONOS Mean,monocytes [3],61.47
same,"enzyme activity, Grans",granulocytes [8]; J4 11/21/91 acute leuk.,27.79
same,"enzyme activity, Grans",granulocytes [8]; J4 12/2/91 A L,47.74
same,"enzyme activity, Grans",granulocytes [8]; J4 12/3/91 acute leuk.,48.53
same,"enzyme activity, Grans",granulocytes [8]; J5 11/27/91 A M L,56.33
same,"enzyme activity, Grans",granulocytes [8]; J19 11/27/91 C L L,48.80
same,"enzyme activity, Grans",granulocytes [8]; J22 12/2/91 A M L,34.02
same,"enzyme activity, Grans",granulocytes [8]; J22 12/9/91 A M L,38.47
same,"enzyme activity, Grans",granulocytes [8]; N191 normal,73.20
same,"enzyme activity, Grans",granulocytes [8]; N192 normal,48.67
same,"enzyme activity, Grans",granulocytes [8]; N193 normal,63.33
same,"enzyme activity, Grans",granulocytes [8]; N194 normal,60.30
same,"enzyme activity, Grans",granulocytes [8]; N195 normal,79.13
same,"enzyme activity, Grans",granulocytes [8]; N197 normal,76.88
same,"enzyme activity, Grans",granulocytes [8]; N199 normal,45.00
same,"enzyme activity, Grans",granulocytes [8]; N200 normal,59.39
same,"enzyme activity, Grans",granulocytes [8]; N201 normal,75.48
same,"enzyme activity, Grans",granulocytes [8]; N202 normal,66.22
same,"enzyme activity, Grans",granulocytes [8]; N206 normal,91.93
same,"enzyme activity, Grans",granulocytes [8]; P68 tachycardia,100.00
same,"enzyme activity, Grans",granulocytes [8]; P69 pancreatic CA,88.04
same,"enzyme activity, Grans",granulocytes [8]; P70 cirrhosis/hemobilia,88.42
same,"enzyme activity, Grans",granulocytes [8]; P71 ac. pyelonephritis,59.35
same,"enzyme activity, Lymphs",lymphocytes [9]; J4 11/21/91 acute leuk.,14.02
same,"enzyme activity, Lymphs",lymphocytes [9]; J4 12/2/91 A L,27.32
same,"enzyme activity, Lymphs",lymphocytes [9]; J4 12/3/91 acute leuk.,31.51
same,"enzyme activity, Lymphs",lymphocytes [9]; J5 11/27/91 A M L,28.36
same,"enzyme activity, Lymphs",lymphocytes [9]; J19 11/27/91 C L L,11.39
same,"enzyme activity, Lymphs",lymphocytes [9]; J22 12/2/91 A M L,24.50
same,"enzyme activity, Lymphs",lymphocytes [9]; J22 12/9/91 A M L,27.14
same,"enzyme activity, Lymphs",lymphocytes [9]; N191 normal,43.57
same,"enzyme activity, Lymphs",lymphocytes [9]; N192 normal,37.47
same,"enzyme activity, Lymphs",lymphocytes [9]; N193 normal,39.30
same,"enzyme activity, Lymphs",lymphocytes [9]; N194 normal,39.76
same,"enzyme activity, Lymphs",lymphocytes [9]; N195 normal,48.18
same,"enzyme activity, Lymphs",lymphocytes [9]; N197 normal,42.96
same,"enzyme activity, Lymphs",lymphocytes [9]; N199 normal,30.68
same,"enzyme activity, Lymphs",lymphocytes [9]; N200 normal,42.28
same,"enzyme activity, Lymphs",lymphocytes [9]; N201 normal,45.32
same,"enzyme activity, Lymphs",lymphocytes [9]; N202 normal,44.55
same,"enzyme activity, Lymphs",lymphocytes [9]; N206 normal,55.56
same,"enzyme activity, Lymphs",lymphocytes [9]; P68 tachycardia,59.29
same,"enzyme activity, Lymphs",lymphocytes [9]; P69 pancreatic CA,67.38
same,"enzyme activity, Lymphs",lymphocytes [9]; P70 cirrhosis/hemobilia,54.84
same,"enzyme activity, Lymphs",lymphocytes [9]; P71 ac. pyelonephritis,41.93
same,"aberrant enzyme activity, LYMPHS",lymphocytes [4]; P88 Enteritis,.smallcircle.
same,"aberrant enzyme activity, LYMPHS",lymphocytes [4]; P89 Viral Stomatitis,- (>0.25 Decrease over normal range)
same,"aberrant enzyme activity, LYMPHS",lymphocytes [4]; P92 Adenitis,.smallcircle.
same,"aberrant enzyme activity, LYMPHS",lymphocytes [4]; P97 Pyelonephritis,.smallcircle.
same,"aberrant enzyme activity, LYMPHS",lymphocytes [4]; P102 UTI,.smallcircle.
same,"aberrant enzyme activity, LYMPHS",lymphocytes [4]; P103 Viral Syndrome,.smallcircle.
same,MEAN DELTA FL,[10]; HIV + PATIENTS,62.4
same,MEAN DELTA FL,[10]; NORMALS,101.1
same,"aberrant enzyme activity, MONOS",monocytes [5]; P88 Enteritis,.smallcircle.
same,"aberrant enzyme activity, MONOS",monocytes [5]; P89 Viral Stomatitis,.smallcircle.
same,"aberrant enzyme activity, MONOS",monocytes [5]; P92 Adenitis,.smallcircle.
same,"aberrant enzyme activity, MONOS",monocytes [5]; P97 Pyelonephritis,+ (>0.25 Increase over normal range)
same,"aberrant enzyme activity, MONOS",monocytes [5]; P103 Viral Syndrome,.smallcircle.
(Z-Thr--Pro)2 Rho 110 [Z-TP 8.7],NORMAL LEUKOCYTE ENZYME ACTIVITY GRANS Mean,granulocytes [7],82.35
same,NORMAL LEUKOCYTE ENZYME ACTIVITY LYMPHS Mean,lymphocytes [1],35.01
same,"aberrant enzyme activity, GRANS",granulocytes [2]; P92 Adenitis,.smallcircle.
same,"aberrant enzyme activity, GRANS",granulocytes [2]; P97 Pyelonephritis,.smallcircle.
same,"aberrant enzyme activity, GRANS",granulocytes [2]; P103 Viral Syndrome,.smallcircle.
same,NORMAL LEUKOCYTE ENZYME ACTIVITY MONOS Mean,monocytes [3],76.00
same,"aberrant enzyme activity, LYMPHS",lymphocytes [4]; P92 Adenitis,- (>0.25 Decrease over normal range)
same,"aberrant enzyme activity, LYMPHS",lymphocytes [4]; P97 Pyelonephritis,.smallcircle.
same,"aberrant enzyme activity, LYMPHS",lymphocytes [4]; P103 Viral Syndrome,.smallcircle.
same,NORMAL E[…] ACTIVITY MEAN,erythrocytes,0.161
same,"aberrant enzyme activity, MONOS",monocytes [5]; P92 Adenitis,- (>0.25 Decrease over normal range)
same,"aberrant enzyme activity, MONOS",monocytes [5]; P97 Pyelonephritis,.smallcircle.
same,"aberrant enzyme activity, MONOS",monocytes [5]; P103 Viral Syndrome,.smallcircle.
"O[C@H](CS)[C@H](O)CS [Dithiothreitol (DTT), Dithiothreitol]",modulator effect,[6],effective modulator
"CC(=O)Oc1cc2c(cc1Cl)C(c1ccccc1C(=O)O)c1cc(Cl)c(OC(C)=O)cc1O2 [DCFH-DA MES, reference compound]",NORMAL LEUKOCYTE ENZYME ACTIVITY GRANS Mean,granulocytes [7],7.49
same,NORMAL LEUKOCYTE ENZYME ACTIVITY LYMPHS Mean,lymphocytes [1],4.11
same,"aberrant enzyme activity, GRANS",granulocytes [2]; P88 Enteritis,.smallcircle.
same,"aberrant enzyme activity, GRANS",granulocytes [2]; P89 Viral Stomatitis,+ (>0.25 Increase over normal range)
same,"aberrant enzyme activity, GRANS",granulocytes [2]; P92 Adenitis,+ (>0.25 Increase over normal range)
same,"aberrant enzyme activity, GRANS",granulocytes [2]; P95 Viral Syndrome,+ (>0.25 Increase over normal range)
same,"aberrant enzyme activity, GRANS",granulocytes [2]; P96 Viral Syndrome,+ (>0.25 Increase over normal range)
same,"aberrant enzyme activity, GRANS",granulocytes [2]; P97 Pyelonephritis,+ (>0.25 Increase over normal range)
same,"aberrant enzyme activity, GRANS",granulocytes [2]; P99 Viral Syndrome,.smallcircle.
same,"aberrant enzyme activity, GRANS",granulocytes [2]; P101 Fever -- Unknown Origin,+ (>0.25 Increase over normal range)
same,"aberrant enzyme activity, GRANS",granulocytes [2]; P102 UTI,.smallcircle.
same,"aberrant enzyme activity, GRANS",granulocytes [2]; P103 Viral Syndrome,+ (>0.25 Increase over normal range)
same,NORMAL LEUKOCYTE ENZYME ACTIVITY MONOS Mean,monocytes [3],12.28
same,"aberrant enzyme activity, LYMPHS",lymphocytes [4]; P88 Enteritis,.smallcircle.
same,"aberrant enzyme activity, LYMPHS",lymphocytes [4]; P89 Viral Stomatitis,+ (>0.25 Increase over normal range)
same,"aberrant enzyme activity, LYMPHS",lymphocytes [4]; P92 Adenitis,+ (>0.25 Increase over normal range)
same,"aberrant enzyme activity, LYMPHS",lymphocytes [4]; P95 Viral Syndrome,+ (>0.25 Increase over normal range)
same,"aberrant enzyme activity, LYMPHS",lymphocytes [4]; P96 Viral Syndrome,+ (>0.25 Increase over normal range)
same,"aberrant enzyme activity, LYMPHS",lymphocytes [4]; P97 Pyelonephritis,.smallcircle.
same,"aberrant enzyme activity, LYMPHS",lymphocytes [4]; P99 Viral Syndrome,.smallcircle.
same,"aberrant enzyme activity, LYMPHS",lymphocytes [4]; P101 Fever -- Unknown Origin,+ (>0.25 Increase over normal range)
same,"aberrant enzyme activity, LYMPHS",lymphocytes [4]; P102 UTI,.smallcircle.
same,"aberrant enzyme activity, LYMPHS",lymphocytes [4]; P103 Viral Syndrome,+ (>0.25 Increase over normal range)
same,NORMAL E[…] ACTIVITY MEAN,erythrocytes,0.286
same,"aberrant enzyme activity, MONOS",monocytes [5]; P88 Enteritis,.smallcircle.
same,"aberrant enzyme activity, MONOS",monocytes [5]; P89 Viral Stomatitis,+ (>0.25 Increase over normal range)
same,"aberrant enzyme activity, MONOS",monocytes [5]; P92 Adenitis,+ (>0.25 Increase over normal range)
same,"aberrant enzyme activity, MONOS",monocytes [5]; P95 Viral Syndrome,+ (>0.25 Increase over normal range)
same,"aberrant enzyme activity, MONOS",monocytes [5]; P96 Viral Syndrome,+ (>0.25 Increase over normal range)
same,"aberrant enzyme activity, MONOS",monocytes [5]; P97 Pyelonephritis,+ (>0.25 Increase over normal range)
same,"aberrant enzyme activity, MONOS",monocytes [5]; P99 Viral Syndrome,.smallcircle.
same,"aberrant enzyme activity, MONOS",monocytes [5]; P101 Fever -- Unknown Origin,+ (>0.25 Increase over normal range)
same,"aberrant enzyme activity, MONOS",monocytes [5]; P102 UTI,.smallcircle.
same,"aberrant enzyme activity, MONOS",monocytes [5]; P103 Viral Syndrome,+ (>0.25 Increase over normal range)
O=C1OC2(c3ccc(OC4O[C@H](CO)[C@@H](O)[C@H](O)[C@H]4O)cc3Oc3cc(OC4O[C@H](CO)[C@@H](O)[C@H](O)[C@H]4O)ccc32)c2ccccc21 (stereo partly drawn) [DIGLUC (FL)],NORMAL LEUKOCYTE ENZYME ACTIVITY GRANS Mean,granulocytes [7],0.45
same,NORMAL LEUKOCYTE ENZYME ACTIVITY LYMPHS Mean,lymphocytes [1],0.23
same,NORMAL E[…] ACTIVITY MEAN,erythrocytes,0.110
